Measured values published in ChEMBL document CHEMBL4130435, “Acetylcholinesterase Inhibitory Alkaloids from the Whole Plants of Zephyranthes carinata” (J Nat Prod, 2017).

Target: Acetylcholinesterase (Homo sapiens, UniProt P22303)
Assay: Inhibition of AChE (unknown origin)

Sequence of Acetylcholinesterase (P22303 whole entry): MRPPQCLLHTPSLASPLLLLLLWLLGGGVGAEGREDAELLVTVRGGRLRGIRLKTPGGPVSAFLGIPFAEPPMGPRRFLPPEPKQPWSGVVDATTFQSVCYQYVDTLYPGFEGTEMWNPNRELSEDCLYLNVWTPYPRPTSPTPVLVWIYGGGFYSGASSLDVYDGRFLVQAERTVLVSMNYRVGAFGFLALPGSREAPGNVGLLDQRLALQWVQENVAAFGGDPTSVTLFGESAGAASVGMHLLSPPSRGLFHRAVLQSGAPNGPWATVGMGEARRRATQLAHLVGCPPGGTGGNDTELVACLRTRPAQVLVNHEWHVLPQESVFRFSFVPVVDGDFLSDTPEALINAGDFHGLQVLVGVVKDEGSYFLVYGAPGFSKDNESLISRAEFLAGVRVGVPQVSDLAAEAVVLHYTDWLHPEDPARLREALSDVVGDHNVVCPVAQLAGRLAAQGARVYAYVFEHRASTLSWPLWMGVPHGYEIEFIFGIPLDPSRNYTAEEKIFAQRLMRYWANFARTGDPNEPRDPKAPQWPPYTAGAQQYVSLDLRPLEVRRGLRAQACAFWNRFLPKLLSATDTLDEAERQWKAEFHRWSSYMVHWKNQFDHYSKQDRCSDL

`CO[C@@H]1C=C[C@@]23c4cc5c(cc4CN(CCc4ccccc4)[C@@H]2C(=O)N(C)[C@H]3C1)OCO5` and `CO[C@@H]1C=C[C@@]23c4cc5c(cc4CN(CCc4ccc(O)cc4)[C@@H]2C(=O)N(C)[C@H]3C1)OCO5` cannot be ordered by IC50: over 200 µM for the first, over 200 µM for the second.

`CN[C@H]1C[C@H](OC)C=C[C@@]12C(=O)N(CCC(C)C)Cc1cc3c(cc12)OCO3` and `CO[C@@H]1C=C[C@@]23c4cc5c(cc4CN(CCC(C)C)[C@@H]2C(=O)N(C)[C@H]3C1)OCO5` cannot be ordered by IC50: over 200 µM for the first, over 200 µM for the second.

First: COc1cc2c(cc1O)[C@@H]1[C@H](O)[C@@H](OC)C=C3CCN(C2)[C@H]31
Second: COc1cc2c(cc1OC)[C@@H]1[C@H](O)[C@@H](OC)C=C3CCN(C2)[C@H]31 [GALANTHINE]
The IC50 of the first is higher: over 200 µM for the first, 6.1 µM for the second. The second is the more potent here.

`CO[C@@H]1C=C[C@@]23c4cc5c(cc4C[N@@+]([O-])(CCc4ccccc4)[C@@H]2C(=O)N(C)[C@H]3C1)OCO5` and `CO[C@@H]1C=C[C@@]23c4cc5c(cc4C[N@@+]([O-])(CCc4ccc(O)cc4)[C@@H]2C(=O)N(C)[C@H]3C1)OCO5` cannot be ordered by IC50: over 200 µM for the first, over 200 µM for the second.

`CO[C@@H]1C=C[C@@]2(CN(CCC(C)C)Cc3cc4c(cc32)OCO4)[C@@H](N(C)C=O)C1` and `CO[C@@H]1C=C[C@@]23c4cc5c(cc4CN(CCC(C)C)[C@]2(C(C)=O)C(=O)N(C)[C@H]3C1)OCO5` cannot be ordered by IC50: over 200 µM for the first, over 200 µM for the second.

First: COc1ccc2c3c1O[C@H]1C[C@@H](O)CC[C@@]31CC[N@@+](C)([O-])C2
Second: COc1ccc2c3c1O[C@H]1C[C@H](O)CC[C@@]31CCN(C)C2
The IC50 of the first is higher: over 200 µM for the first, 57.9 µM for the second. The second is the more potent here.

`COc1cc2c(cc1O)[C@@H]1[C@H](O)[C@@H](OC)C=C3CC[N@@+]([O-])(C2)[C@H]31` and `COc1cc2c(cc1OC)[C@@H]1[C@H](O)[C@@H](OC)C=C3CC[N@+]([O-])(C2)[C@H]31` cannot be ordered by IC50: over 200 µM for the first, over 200 µM for the second.

`CO[C@@H]1C=C[C@@]23c4cc5c(cc4C(=O)N(C)[C@@H]2C(=O)N(C)[C@H]3C1)OCO5` and `CO[C@@H]1C=C[C@@]23c4cc5c(cc4C(=O)N(CCC(C)C)[C@@H]2C(=O)N(C)[C@H]3C1)OCO5` cannot be ordered by IC50: over 200 µM for the first, over 200 µM for the second.

`CO[C@@H]1C=C[C@@]23c4cc5c(cc4C(=O)N(CCC(C)C)[C@@H]2CN(C)[C@@H]3C1)OCO5` and `CO[C@@H]1C=C[C@@]23c4cc5c(cc4CN(C)[C@@H]2C(=O)N(C)[C@H]3C1)OCO5` cannot be ordered by IC50: over 200 µM for the first, over 200 µM for the second.

Going from `COc1cc2c3c(c1)c1cc(=O)c(OC)cc-1cn3CC2` to `COc1cc2c(cc1O)[C@@H]1[C@H](O)[C@@H](O)C=C3CCN(C2)[C@H]31` [PSEUDOLYCORINE], the IC50 rises from 35.6 µM to 188 µM (5.3-fold).

First: CO[C@@H]1C=C[C@@]23c4cc5c(cc4C[N@@+]([O-])(CCO)[C@@H]2C(=O)N(C)[C@H]3C1)OCO5
Second: O[C@H]1[C@H]2c3cc4c(cc3CN3CCC(=C[C@@H]1O)[C@H]23)OCO4 [LYCORINE]
The IC50 of the first is lower: 126 µM for the first, over 200 µM for the second. The first is the more potent here.

First: COc1ccc2c3c1O[C@H]1C[C@@H](O)C=C[C@@]31[C@H](O)C[N@@+](C)([O-])C2
Second: COc1ccc2c3c1O[C@H]1C[C@@H](O)CC[C@@]31CCN(C)C2
The IC50 of the first is higher: over 200 µM for the first, 20.1 µM for the second. The second is the more potent here.
